From ChEMBL document CHEMBL5316325, “Design and Synthesis of 3-Hydroxy-pyridin-4(1H)-ones-Ciprofloxacin Conjugates as Dual Antibacterial and Antibiofilm Agents against Pseudomonas aeruginosa” (J Med Chem, 2023)
≈ marks a conversion by molar mass, not a printed value.

Assays:
Type in all cases: functional
Pseudomonas aeruginosa [1] = experiment: Antibacterial activity against Pseudomonas aeruginosa PAO1 in MHB medium assessed as bacterial growth inhibition by CLSI based broth microdilution method
Pseudomonas aeruginosa [2] = experiment: Antibacterial activity against Pseudomonas aeruginosa FB in MHB medium assessed as bacterial growth inhibition by CLSI based broth microdilution method
Escherichia coli = experiment: Antibacterial activity against Escherichia coli ATCC 25922 in MHB medium assessed as bacterial growth inhibition by CLSI based broth microdilution method
Pseudomonas aeruginosa [3] = experiment: Antibiofilm activity against Pseudomonas aeruginosa PAO1 in ABTGC medium assessed as biofilm biomass at 1/4 times MIC incubated for 24 hrs by crystal violet staining based assay relative to control
Klebsiella pneumoniae = experiment: Antibacterial activity against Klebsiella pneumoniae ATCC 700603 in MHB medium assessed as bacterial growth inhibition by CLSI based broth microdilution method
Pseudomonas aeruginosa [4] = experiment: Antibiofilm activity against Pseudomonas aeruginosa PAO1 in ABTGC medium assessed as biofilm biomass at 1/2 times MIC incubated for 24 hrs by crystal violet staining based assay relative to control
Pseudomonas aeruginosa [5] = experiment: Antibiofilm activity against Pseudomonas aeruginosa PAO1 in ABTGC medium assessed as biofilm biomass at MIC incubated for 24 hrs by crystal violet staining based assay relative to control
Pseudomonas aeruginosa [6] = experiment: Antibacterial activity against Pseudomonas aeruginosa ATCC 27853 in MHB medium assessed as bacterial growth inhibition by CLSI based broth microdilution method
Pseudomonas aeruginosa [7] = experiment: Antibacterial activity against Pseudomonas aeruginosa 1129 in MHB medium assessed as bacterial growth inhibition by CLSI based broth microdilution method
Pseudomonas aeruginosa [8] = experiment: Antibacterial activity against Pseudomonas aeruginosa 1121 in MHB medium assessed as bacterial growth inhibition by CLSI based broth microdilution method
Pseudomonas aeruginosa [9] = experiment: Antibacterial activity against Pseudomonas aeruginosa 1167 in MHB medium assessed as bacterial growth inhibition by CLSI based broth microdilution method
Staphylococcus aureus [10] = experiment: Antibacterial activity against methicillin-resistant Staphylococcus aureus ATCC 515992 in MHB medium assessed as bacterial growth inhibition by CLSI based broth microdilution method
Pseudomonas aeruginosa [11] = experiment: Antibacterial activity against Pseudomonas aeruginosa PAO1 in ABTGC medium assessed as bacterial growth inhibition
Staphylococcus aureus [12] = experiment: Antibacterial activity against Staphylococcus aureus ATCC 25923 in MHB medium assessed as bacterial growth inhibition by CLSI based broth microdilution method

SMILES	MIC (Pseudomonas aeruginosa [1]) [µM]	MIC (Pseudomonas aeruginosa [2]) [µM]	MIC (Escherichia coli) [µM]	Activity (Pseudomonas aeruginosa [3]) [%]	MIC (Klebsiella pneumoniae) [µM]	Activity (Pseudomonas aeruginosa [4]) [%]	Activity (Pseudomonas aeruginosa [5]) [%]	MIC (Pseudomonas aeruginosa [6]) [µM]	MIC (Pseudomonas aeruginosa [7]) [µM]	MIC (Pseudomonas aeruginosa [8]) [µM]	MIC (Pseudomonas aeruginosa [9]) [µM]	MIC (Staphylococcus aureus [10]) [µM]	MIC (Pseudomonas aeruginosa [11]) [µM]	MIC (Staphylococcus aureus [12]) [µM]
O=C(CCC(=O)N1CCN(c2cc3c(cc2F)c(=O)c(C(=O)O)cn3C2CC2)CC1)NCc1cc(=O)c(O)c[nH]1	1.81 (≈ 1 µg/mL)	7.23 (≈ 4 µg/mL)	0.23 (≈ 0.127 µg/mL)	19.9	14.4 (≈ 8 µg/mL)	98.8	169.8	7.23 (≈ 4 µg/mL)	7.23 (≈ 4 µg/mL)	3.61 (≈ 2 µg/mL)	3.61 (≈ 2 µg/mL)	> 200	14.4 (≈ 8 µg/mL)	3.61 (≈ 2 µg/mL)
Cc1cc(=O)c(O)c(CNC(=O)CCCCC(=O)N2CCN(c3cc4c(cc3F)c(=O)c(C(=O)O)cn4C3CC3)CC2)n1C	1.64 (≈ 1 µg/mL)	3.28 (≈ 2 µg/mL)	0.05 (≈ 0.0305 µg/mL)	27	6.56 (≈ 4 µg/mL)	86.3	23.3	3.28 (≈ 2 µg/mL)	6.56 (≈ 4 µg/mL)	3.28 (≈ 2 µg/mL)	3.28 (≈ 2 µg/mL)	> 200	13.1 (≈ 8 µg/mL)	13.1 (≈ 8 µg/mL)
O=C(CCC(=O)N1CCN(c2cc3c(cc2F)c(=O)c(C(=O)O)cn3C2CC2)CC1)NCc1cc(=O)c(O)cn1O	1.76 (≈ 1 µg/mL)	7.02 (≈ 4 µg/mL)	0.22 (≈ 0.125 µg/mL)	48.9	14.1 (≈ 8 µg/mL)	54.2	137	7.02 (≈ 4 µg/mL)	7.02 (≈ 4 µg/mL)	7.02 (≈ 4 µg/mL)	3.51 (≈ 2 µg/mL)	> 200	14.1 (≈ 8 µg/mL)	28.1 (≈ 16 µg/mL)
Cn1cc(O)c(=O)cc1CNC(=O)CCCCC(=O)N1CCN(c2cc3c(cc2F)c(=O)c(C(=O)O)cn3C2CC2)CC1	0.84 (≈ 0.5 µg/mL)	3.36 (≈ 2 µg/mL)	0.1 (≈ 0.0596 µg/mL)	24.9	6.72 (≈ 4 µg/mL)	110.3	86.4	3.36 (≈ 2 µg/mL)	6.72 (≈ 4 µg/mL)	1.68 (≈ 1 µg/mL)	1.68 (≈ 1 µg/mL)	> 200	6.72 (≈ 4 µg/mL)	13.4 (≈ 8 µg/mL)
Cn1cc(O)c(=O)cc1CNC(=O)CCCC(=O)N1CCN(c2cc3c(cc2F)c(=O)c(C(=O)O)cn3C2CC2)CC1	0.86 (≈ 0.5 µg/mL)	3.44 (≈ 2 µg/mL)	0.11 (≈ 0.064 µg/mL)	23.4	6.72 (≈ 3.91 µg/mL)	189	75.3	3.44 (≈ 2 µg/mL)	6.88 (≈ 4 µg/mL)	3.44 (≈ 2 µg/mL)	1.72 (≈ 1 µg/mL)	> 200	13.8 (≈ 8 µg/mL)	13.8 (≈ 8 µg/mL)
Cc1cc(=O)c(O)cn1CCCNC(=O)CCC(=O)N1CCN(c2cc3c(cc2F)c(=O)c(C(=O)O)cn3C2CC2)CC1	3.36 (≈ 2 µg/mL)	3.36 (≈ 2 µg/mL)	0.42 (≈ 0.25 µg/mL)	116.3	13.4 (≈ 8 µg/mL)	78.2	92.1	6.72 (≈ 4 µg/mL)	6.36 (≈ 3.79 µg/mL)	6.72 (≈ 4 µg/mL)	3.36 (≈ 2 µg/mL)	> 200	53.7 (≈ 32 µg/mL)	6.72 (≈ 4 µg/mL)
Cn1cc(O)c(=O)cc1CNC(=O)CCC(=O)N1CCN(c2cc3c(cc2F)c(=O)c(C(=O)O)cn3C2CC2)CC1	0.88 (≈ 0.499 µg/mL)	1.76 (≈ 0.999 µg/mL)	0.06 (≈ 0.0341 µg/mL)	29.2	3.52 (≈ 2 µg/mL)	110.3	55.3	1.76 (≈ 0.999 µg/mL)	3.52 (≈ 2 µg/mL)	1.76 (≈ 0.999 µg/mL)	0.88 (≈ 0.499 µg/mL)	> 200	7.05 (≈ 4 µg/mL)	7.05 (≈ 4 µg/mL)
Cc1cc(=O)c(O)cn1CCCn1cc(CCC(=O)N2CCN(c3cc4c(cc3F)c(=O)c(C(=O)O)cn4C3CC3)CC2)nn1	103 (≈ 64 µg/mL)	103 (≈ 64 µg/mL)	51.6 (≈ 32 µg/mL)	97.6	> 200	127.7	71.7	103 (≈ 64 µg/mL)	103 (≈ 64 µg/mL)	103 (≈ 64 µg/mL)	103 (≈ 64 µg/mL)	> 200	> 200	> 200
Cc1cc(=O)c(O)c(CNC(=O)CCC(CCC(=O)NCc2c(O)c(=O)cc(C)n2C)(CCC(=O)NCc2c(O)c(=O)cc(C)n2C)NC(=O)CCCCC(=O)N2CCN(c3cc4c(cc3F)c(=O)c(C(=O)O)cn4C3CC3)CC2)n1C	3.51 (≈ 4 µg/mL)	14 (≈ 16 µg/mL)	0.22 (≈ 0.251 µg/mL)	158.1	14 (≈ 16 µg/mL)	9.6	15.1	7.02 (≈ 8 µg/mL)	28.1 (≈ 32 µg/mL)	14 (≈ 16 µg/mL)	7.02 (≈ 8 µg/mL)	> 200	56.2 (≈ 64 µg/mL)	14 (≈ 16 µg/mL)
Cc1cc(=O)c(O)c(CNC(=O)CCCC(=O)N2CCN(c3cc4c(cc3F)c(=O)c(C(=O)O)cn4C3CC3)CC2)n1C	6.72 (≈ 4 µg/mL)	13.4 (≈ 8 µg/mL)	0.21 (≈ 0.125 µg/mL)	84.1	26.9 (≈ 16 µg/mL)	116.8	39.5	0.86 (≈ 0.512 µg/mL)	13.4 (≈ 8 µg/mL)	6.72 (≈ 4 µg/mL)	6.72 (≈ 4 µg/mL)	> 200	128 (≈ 76.2 µg/mL)	53.7 (≈ 32 µg/mL)
